In patent publication US12252524B2, “GIP/GLP1 co-agonist compounds” (Eli Lilly and Company, priority 2018, dated 2025) one finds EC50 data, which are given here for three compounds.

As usually defined, the EC50 is the concentration at which the effect is half-maximal.

For test [1], the target named is human GLP-1 receptor (GLP-1R) (Homo sapiens, UniProt P43220). The test is described as follows: cAMP pharmacological functional assay in presence of casein, hGLP-1R. Format: cell-based. As to conditions: HEK293 cells expressing hGLP-1R, 0.1% Casein, geometric mean; read-out: hGLP1R cAMP Rel EC50 nM (SEM, n).
Test [2] concerns the target T1, gastric inhibitory peptide receptor (GIPR) (Homo sapiens, UniProt P48546).
T1 sequence (P48546 22-466): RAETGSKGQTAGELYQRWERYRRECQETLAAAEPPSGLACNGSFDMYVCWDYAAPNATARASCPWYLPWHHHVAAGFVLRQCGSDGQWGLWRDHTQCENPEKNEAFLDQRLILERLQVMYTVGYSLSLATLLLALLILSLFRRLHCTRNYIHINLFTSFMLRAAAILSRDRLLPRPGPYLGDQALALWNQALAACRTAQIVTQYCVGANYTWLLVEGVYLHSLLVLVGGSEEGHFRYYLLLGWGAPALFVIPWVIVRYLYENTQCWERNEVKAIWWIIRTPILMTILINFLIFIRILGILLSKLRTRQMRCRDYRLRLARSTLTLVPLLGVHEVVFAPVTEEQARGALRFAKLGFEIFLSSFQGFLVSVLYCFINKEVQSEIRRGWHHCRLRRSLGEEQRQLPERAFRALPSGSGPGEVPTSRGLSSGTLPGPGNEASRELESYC
The test can be described thus: cAMP pharmacological functional assay in presence of casein, hGIPR. The format is cell-based. As to conditions: HEK293 cells expressing hGIPR, 0.1% Casein, geometric mean; read-out: hGIPR cAMP Rel EC50 nM (SEM, n).

Numbered stars: 1 amine (or outer) side, 2 acyl side, 3 side chain; on linkers, the order of the positions; unused ones are H or OH. Square brackets hold non-standard residues; d marks the D form. Side chains are listed from the residue outwards. Peptide text beside a SMILES is read from it. * marks the point of attachment. C20 diacid = O=C(O)CCCCCCCCCCCCCCCCCCC(=O)*; C18 diacid = O=C(O)CCCCCCCCCCCCCCCCC(=O)*; αMePhe(2-F) = C[C@](N)(Cc1ccccc1F)C(=O)O; γGlu = O=C(O)[C@H](CCC(=O)[*:2])N[*:1]; αMeL = CC(C)C[C@](C)(N)C(=O)O; αMeP = C[C@@]1(C(=O)O)CCCN1; AEEA = NCCOCCOCC(=O)O; Aib = CC(C)(N)C(=O)O

Chain of human GLP-1 receptor (GLP-1R) (P43220 24-463): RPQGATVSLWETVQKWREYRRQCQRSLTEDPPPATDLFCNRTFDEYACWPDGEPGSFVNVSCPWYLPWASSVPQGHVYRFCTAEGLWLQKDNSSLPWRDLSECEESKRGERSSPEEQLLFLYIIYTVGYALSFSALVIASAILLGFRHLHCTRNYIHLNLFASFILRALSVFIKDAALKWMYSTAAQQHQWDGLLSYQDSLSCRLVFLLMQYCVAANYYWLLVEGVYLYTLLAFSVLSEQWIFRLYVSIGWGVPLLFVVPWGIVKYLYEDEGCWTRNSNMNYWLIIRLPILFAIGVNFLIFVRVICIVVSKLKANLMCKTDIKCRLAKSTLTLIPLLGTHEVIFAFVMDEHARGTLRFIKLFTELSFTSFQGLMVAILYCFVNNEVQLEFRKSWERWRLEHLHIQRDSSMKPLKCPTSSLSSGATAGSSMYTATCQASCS

Regarding `CC[C@H](C)[C@H](NC(=O)[C@H](CC(C)C)NC(=O)[C@H](Cc1ccc(O)cc1)NC(=O)[C@H](CCC(=O)O)NC(=O)[C@@H](NC(=O)[C@H](Cc1ccccc1)NC(=O)[C@H](C)NC(=O)C(C)(C)NC(=O)[C@H](CCC(N)=O)NC(=O)[C@H](C)NC(=O)[C@H](CCCCNC(=O)COCCOCCNC(=O)[C@@H](N)CCCCNC(=O)[C@@H](N)CCCCNC(=O)CCCCCCCCCCCCCCCCCCC(=O)O)NC(=O)[C@H](CCCCN)NC(=O)[C@H](CC(=O)O)NC(=O)[C@H](CC(C)C)NC(=O)[C@H](CC(C)C)NC(=O)[C@@H](NC(=O)[C@H](CO)NC(=O)[C@H](Cc1ccc(O)cc1)NC(=O)[C@H](CC(=O)O)NC(=O)[C@H](CO)NC(=O)[C@@H](NC(=O)[C@H](Cc1ccccc1)NC(=O)[C@@H](NC(=O)CNC(=O)[C@H](CCC(=O)O)NC(=O)C(C)(C)NC(=O)[C@@H](N)Cc1ccc(O)cc1)[C@@H](C)O)[C@@H](C)O)[C@@H](C)CC)[C@@H](C)CC)C(=O)N[C@@H](CCC(=O)O)C(=O)NCC(=O)NCC(=O)N1CCC[C@H]1C(=O)N[C@@H](CO)C(=O)N[C@@H](CO)C(=O)NCC(=O)N[C@@H](C)C(=O)N1CCC[C@H]1C(=O)N1CCC[C@H]1C(=O)N1CCC[C@H]1C(=O)N[C@@H](CO)C(N)=O` [Example 114], the 50% effective concentration (EC50) was 0.267 nM in test [1] and 0.133 nM in test [2].
Consider `CC[C@H](C)[C@H](NC(=O)[C@H](CC(C)C)NC(=O)[C@H](Cc1ccc(O)cc1)NC(=O)[C@H](CCC(=O)O)NC(=O)[C@@H](NC(=O)[C@H](Cc1ccccc1)NC(=O)[C@H](C)NC(=O)[C@H](CCC(N)=O)NC(=O)[C@H](CCC(N)=O)NC(=O)[C@H](C)NC(=O)[C@H](CCCCNC(=O)COCCOCCNC(=O)COCCOCCNC(=O)CC[C@H](NC(=O)CCCCCCCCCCCCCCCCC(=O)O)C(=O)O)NC(=O)[C@H](CCC(=O)O)NC(=O)[C@H](CC(=O)O)NC(=O)[C@H](CC(C)C)NC(=O)[C@H](CC(C)C)NC(=O)[C@@H](NC(=O)[C@H](CO)NC(=O)[C@H](Cc1ccc(O)cc1)NC(=O)[C@H](CC(=O)O)NC(=O)[C@H](CO)NC(=O)[C@@H](NC(=O)[C@H](Cc1ccccc1)NC(=O)[C@@H](NC(=O)CNC(=O)[C@H](CCC(=O)O)NC(=O)[C@]1(C)CCCN1C(=O)[C@@H](N)Cc1ccc(O)cc1)[C@@H](C)O)[C@@H](C)O)[C@@H](C)CC)[C@@H](C)CC)C(=O)N[C@@H](CCC(=O)O)C(=O)NCC(=O)NCC(=O)N1CCC[C@H]1C(=O)N[C@@H](CO)C(=O)N[C@@H](CO)C(=O)NCC(N)=O` [Example 197] (H-Y[αMeP]EGTFTSDYSILLDEK([AEEA-AEEA-γGlu-C18 diacid])AQQAFIEYLIEGGPSSG-NH2), for which the EC50 came out at 0.248 nM in test [1] and 0.211 nM in test [2].
On to `CC[C@H](C)[C@H](NC(=O)[C@H](CC(C)C)NC(=O)[C@H](Cc1ccc(O)cc1)NC(=O)[C@H](CCC(N)=O)NC(=O)[C@@H](NC(=O)[C@H](Cc1ccccc1)NC(=O)[C@H](CCC(=O)O)NC(=O)C(C)(C)NC(=O)[C@H](CCC(N)=O)NC(=O)[C@H](C)NC(=O)[C@H](CCCCNC(=O)COCCOCCNC(=O)COCCOCCNC(=O)CC[C@H](NC(=O)CCCCCCCCCCCCCCCCCCC(=O)O)C(=O)O)NC(=O)[C@H](CCC(=O)O)NC(=O)[C@H](CC(=O)O)NC(=O)[C@H](CC(C)C)NC(=O)[C@](C)(CC(C)C)NC(=O)[C@@H](NC(=O)[C@H](CO)NC(=O)[C@H](Cc1ccc(O)cc1)NC(=O)[C@H](CC(=O)O)NC(=O)[C@H](CO)NC(=O)[C@@H](NC(=O)[C@](C)(Cc1ccccc1F)NC(=O)[C@@H](NC(=O)CNC(=O)[C@H](CCC(=O)O)NC(=O)C(C)(C)NC(=O)[C@@H](N)Cc1ccc(O)cc1)[C@@H](C)O)[C@@H](C)O)[C@@H](C)CC)[C@@H](C)CC)C(=O)N[C@@H](CCC(=O)O)C(=O)NCC(=O)NCC(=O)N1CCC[C@H]1C(=O)N[C@@H](CO)C(=O)N[C@@H](CO)C(=O)NCC(=O)N[C@@H](C)C(=O)N1CCC[C@H]1C(=O)N1CCC[C@H]1C(=O)N1CCC[C@H]1C(=O)N[C@@H](CO)C(N)=O` [Example 146] (H-Y[Aib]EGT[αMePhe(2-F)]TSDYSI[αMeL]LDEK([AEEA-AEEA-γGlu-C20 diacid])AQ[Aib]EFIQYLIEGGPSSGAPPPS-NH2), for which the EC50 in test [1] was found to be 0.0604 nM; in test [2], 0.0583 nM.
